In the assay the test system is HLA-A*02. The assay is described as follows: MHC binding assay, UV-ligand exchange with β2m ELISA, HLA-A*02 (Table 20). More on the design: species or system human. As to conditions: binding to HLA-A*02 ranged by peptide exchange yield (UV-ligand exchange, β2m ELISA). The source says: Candidate peptides for T cell based therapies according to the present invention were further tested for their MHC binding capacity (affinity). The individual peptide-MHC complexes were produced by UV-ligand exchange, where a UV-sensitive peptide is cleaved upon UV-irradiation, and exchanged with the peptide of interest as analyzed. Only peptide candidates that can effectively bind and stabilize the peptide-receptive MHC molecules prevent dissociation of the MHC complexes. To determine the yield of the exchange reaction, an ELISA was performed based on the detection of the light chain ((β2m) of stabilized MHC complexes. The assay was performed as generally described in Rodenko et al. (Rodenko et al., 2006).
96 well MAXISorp plates (NUNC) were coated over night with 2 ug/ml streptavidin in PBS at room temperature, washed 4× and blocked for 1 h at 37° C. in 2% BSA containing blocking buffer. Refolded HLA-A*02:01/MLA-001 monomers served as standards, covering the range of 15-500 ng/ml. Peptide-MHC monomers of the UV-exchange reaction were diluted 100 fold in blocking buffer. Samples were incubated for 1 h at 37° C., washed four times, incubated with 2 ug/ml HRP conjugated anti-β2m for 1 h at 37° C., washed again and detected with TMB solution that is stopped with […]. Absorption was measured at 450 nm. Candidate peptides that show a high exchange yield (preferably higher than 50%, most preferred higher than 75%) are generally preferred for a generation and production of antibodies or fragments thereof, and/or T cell receptors or fragments thereof, as they show sufficient avidity to the MHC molecules and prevent dissociation of the MHC complexes.
In general terms: An ELISA detects its analyte on a solid surface through an enzyme-linked reagent.
On to “240 (YMGEEKLIASV; listed as Homo sapiens) [compound 240]”, for which the Peptide exchange result is given as “+++ (50%-75% = +++)”. Then “245 (SLLDLPLSL; listed as Homo sapiens) [compound 245]”, with “++++ (≧75% = ++++)”. The entry for “33 (YIKTELISV; listed as Homo sapiens) [compound 33]” is “+++ (50%-75% = +++)”.

“74 (TLFGYSVVL; listed as Homo sapiens) [compound 74]”: the Peptide exchange entry is recorded as “+++ (50%-75% = +++)”. For “81 (NALDKVLSV; listed as Homo sapiens) [compound 81]”, the Peptide exchange entry was “+++ (50%-75% = +++)”. “69 (FLAVGLVDV; listed as Homo sapiens) [compound 69]”: the Peptide exchange result is reported as “+++ (50%-75% = +++)”. The entry for “157 (TLTSLLAQA; listed as Homo sapiens) [compound 157]” is “+++ (50%-75% = +++)”; for “73 (YTLREVDTV; listed as Homo sapiens) [compound 73]” it is “++ (20%-49% = ++)”. Then “16 (YTLDIPVLFGV; listed as Homo sapiens) [compound 16]”, with “++++ (≧75% = ++++)”. The entry for “242 (WLYGEDHQI; listed as Homo sapiens) [compound 242]” is “++ (20%-49% = ++)”; for “154 (RLLGTEFQV; listed as Homo sapiens) [compound 154]” it is “+++ (50%-75% = +++)”. For “71 (VLHSKFWVV; listed as Homo sapiens) [compound 71]”, the Peptide exchange result is given as “+++ (50%-75% = +++)”. As for “118 (QLWQFLVTL; listed as Homo sapiens) [compound 118]”, the Peptide exchange result is given as “+++ (50%-75% = +++)”.

As for “155 (LLNPVVEFV; listed as Homo sapiens) [compound 155]”, the Peptide exchange result is on record as “+++ (50%-75% = +++)”. Then “77 (TLIDEQDIPLV; listed as Homo sapiens) [compound 77]”, with “+++ (50%-75% = +++)”; and “256 (SLGEEQFSV; listed as Homo sapiens) [compound 256]”, with “++ (20%-49% = ++)”; and “84 (ALCPRIHEV; listed as Homo sapiens) [compound 84]”, with “++++ (≧75% = ++++)”. Then “61 (AIVKEIVNI; listed as Homo sapiens) [compound 61]”, with “++ (20%-49% = ++)”.

Turning to “252 (RLMEICESL; listed as Homo sapiens) [compound 252]”, the Peptide exchange result is on record as “+++ (50%-75% = +++)”. Then “259 (ILLPRIIEA; listed as Homo sapiens) [compound 259]”, with “+++ (50%-75% = +++)”; and “103 (YLVSEIFKA; listed as Homo sapiens) [compound 103]”, with “+++ (50%-75% = +++)”. Then “36 (SLADTNSLAVV; listed as Homo sapiens) [compound 36]”, with “+++ (50%-75% = +++)”; and “106 (FINDSIVYL; listed as Homo sapiens) [compound 106]”, with “+++ (50%-75% = +++)”; and “70 (LLLGDSALYL; listed as Homo sapiens) [compound 70]”, with “+++ (50%-75% = +++)”.

As for “241 (KTIQQLETV; listed as Homo sapiens) [compound 241]”, the Peptide exchange result was “++ (20%-49% = ++)”. The entry for “145 (YLWATIQRI; listed as Homo sapiens) [compound 145]” is “+++ (50%-75% = +++)”; for “68 (SLSNRLYYL; listed as Homo sapiens) [compound 68]” it is “+++ (50%-75% = +++)”; for “243 (FMADDIFSV; listed as Homo sapiens) [compound 243]” it is “+++ (50%-75% = +++)”. As for “131 (VTSNSGILGV; listed as Homo sapiens) [compound 131]”, the Peptide exchange entry is on record as “+++ (50%-75% = +++)”.

Consider “261 (QLQDRVYAL; listed as Homo sapiens) [compound 261]”, for which the Peptide exchange result is on record as “+++ (50%-75% = +++)”.

As for “63 (SQIPAQPSV; listed as Homo sapiens) [compound 63]”, the Peptide exchange result is reported as “++ (20%-49% = ++)”. On to “88 (AQADHLPQL; listed as Homo sapiens) [compound 88]”, for which the Peptide exchange entry is listed as “++ (20%-49% = ++)”. Then “132 (ILGEVLAQL; listed as Homo sapiens) [compound 132]”, with “+++ (50%-75% = +++)”; and “56 (FLHDEKEGIYI; listed as Homo sapiens) [compound 56]”, with “+++ (50%-75% = +++)”.

Regarding “28 (SLPNGKPVSV; listed as Homo sapiens) [compound 28]”, the Peptide exchange result is recorded as “+++ (50%-75% = +++)”. Then “99 (YLLQSVNQLLL; listed as Homo sapiens) [compound 99]”, with “++ (20%-49% = ++)”; and “47 (ALLERGELFV; listed as Homo sapiens) [compound 47]”, with “+++ (50%-75% = +++)”; and “133 (ALLPRLHQL; listed as Homo sapiens) [compound 133]”, with “++++ (≧75% = ++++)”.

Consider “49 (ALNIATHVL; listed as Homo sapiens) [compound 49]”, for which the Peptide exchange result is “+++ (50%-75% = +++)”.

As to “24 (TLDEKVAEL; listed as Homo sapiens) [compound 24]”, the Peptide exchange result is recorded as “+++ (50%-75% = +++)”.

“244 (YLLEKNRVV; listed as Homo sapiens) [compound 244]”: the Peptide exchange result is reported as “++ (20%-49% = ++)”.

As for “127 (KLDGNELDL; listed as Homo sapiens) [compound 127]”, the Peptide exchange result is “+++ (50%-75% = +++)”. The entry for “135 (HLSTIIHEA; listed as Homo sapiens) [compound 135]” is “+++ (50%-75% = +++)”.

With “136 (FLFGGVLMTL; listed as Homo sapiens) [compound 136]”, the Peptide exchange result was “++ (20%-49% = ++)”. The entry for “262 (FMVDKAIYL; listed as Homo sapiens) [compound 262]” is “+++ (50%-75% = +++)”. Then “134 (GLAVPTPSV; listed as Homo sapiens) [compound 134]”, with “+++ (50%-75% = +++)”; and “102 (VLLDIQEVFQI; listed as Homo sapiens) [compound 102]”, with “+++ (50%-75% = +++)”; and “32 (VQLDSIEDLEV; listed as Homo sapiens) [compound 32]”, with “+++ (50%-75% = +++)”.

As to “60 (ALFAPLVHL; listed as Homo sapiens) [compound 60]”, the Peptide exchange entry was “+++ (50%-75% = +++)”. The entry for “143 (ALLPELREV; listed as Homo sapiens) [compound 143]” is “+++ (50%-75% = +++)”. Consider “266 (YAIGLVMRL; listed as Homo sapiens) [compound 266]”, for which the Peptide exchange result is “+++ (50%-75% = +++)”. The entry for “257 (GLYTDPCGV; listed as Homo sapiens) [compound 257]” is “++++ (≧75% = ++++)”. In the case of “85 (VLNDILVRA; listed as Homo sapiens) [compound 85]”, the Peptide exchange result is reported as “+++ (50%-75% = +++)”. Take “112 (SLGKFTFDV; listed as Homo sapiens) [compound 112]”: the Peptide exchange result is given as “++++ (≧75% = ++++)”. As to “45 (SLTEVSLPL; listed as Homo sapiens) [compound 45]”, the Peptide exchange entry is recorded as “+++ (50%-75% = +++)”. On to “22 (FVDPNTQEKV; listed as Homo sapiens) [compound 22]”, for which the Peptide exchange result is recorded as “++ (20%-49% = ++)”. Then “66 (KLIFSVEAV; listed as Homo sapiens) [compound 66]”, with “+++ (50%-75% = +++)”; and “13 (ALMAMLVYV; listed as Homo sapiens) [compound 13]”, with “++ (20%-49% = ++)”.

On to “148 (MLAGIAITV; listed as Homo sapiens) [compound 148]”, for which the Peptide exchange entry is reported as “+++ (50%-75% = +++)”.

With “147 (YLMDDTVEI; listed as Homo sapiens) [compound 147]”, the Peptide exchange result is recorded as “++++ (≧75% = ++++)”.

Take “130 (SLLGGTFVGI; listed as Homo sapiens) [compound 130]”: the Peptide exchange result was “+++ (50%-75% = +++)”. The entry for “80 (KLYEADFVL; listed as Homo sapiens) [compound 80]” is “++ (20%-49% = ++)”; for “58 (YLLPLLPAL; listed as Homo sapiens) [compound 58]” it is “+++ (50%-75% = +++)”.

As for “54 (VLNPLITAV; listed as Homo sapiens) [compound 54]”, the Peptide exchange result was “+++ (50%-75% = +++)”.

As to “129 (RLQDILWFL; listed as Homo sapiens) [compound 129]”, the Peptide exchange result is on record as “++++ (≧75% = ++++)”. The entry for “3 (KLEENGDLYL; listed as Homo sapiens) [compound 3]” is “++++ (≧75% = ++++)”.

These data come from US20170189504A1, “NOVEL PEPTIDES AND COMBINATION OF PEPTIDES FOR USE IN IMMUNOTHERAPY AGAINST VARIOUS CANCERS” (immatics biotechnologies GmbH, priority 2015, published 2017).
